In brackets after ≈: the same amount, converted by molar mass. Read-outs that look alike come from different tables or passages of the source.
Experiments:
[1] = system: anti-sheep red blood cell antibody production in BALB/c mice; test: suppression of mouse anti-sheep red blood cell antibody production (PFC); format: in vivo; details: Experiment 2; 10 mg/kg/day i.p., 4 days
Description: (§1) Males 5- to 7-week-old BALB/c mice were immunized with sheep red blood cells (SRBC), and the spleen was resected three or four days later. By counting the plaque forming cells (PFC), suppressive effect on the production of the anti-sheep red blood cell antibody was examined as follows.
(§2) BALB/c mice were immunized with SRBC (1×10^7 cells/mouse, intravenous administration), and ISP-I in the Example 1 was administered intraperitoneally for 4 consecutive days from the day of immunization. Four days after immunization (the next day of the final administration), the spleen was resected and the anti-sheep red blood cell antibody-producing cells were determined by the direct plaque method. At the same time the body weight of the mouse, wet weight of the thymus and the spleen, and numbers of spleen cells were also determined.
as §2, with “(5×10^7” for “(1×10^7”, “the compound” for “ISP-I”, “5” for “1”, “resected,” for “resected”, “time,” for “time”

[2] = system: human allogenic MLR (peripheral blood lymphocytes); test: human allogenic MLR-suppressive activity; format: cell-based
Description: The human allogenic MLR-suppressive activity was assayed as follows:
Human peripheral blood lymphocytes obtained by Ficoll-Paque density gradient centrifugation of normal human peripheral blood were suspended in the RPMI1640 medium supplemented with 10% FCS, placed in plastic dishes, and incubated at 37° C. in an atmosphere of 5% carbon dioxide for 2 hours. After termination of incubation, the supernatant after gentle pipetting was harvested and centrifuged (1000 rpm, for 5 minutes) to obtain plastic-nonadherent cells. The plastic-nonadherent cells were allowed to pass through a nylon-wool column to give nylon-nonadherent cells, and the concentration of the cell suspension was adjusted to 4×10^6 cells/ml by using the RPMI1640 culture medium supplemented with 10% FCS, and used as the responder cell suspension.
The plastic-adherent cells were removed from the plastic dish by vigorous pipetting after addition of phosphate buffered saline supplemented with 5% FCS and 0.02% disodium ethylenediamine-tetraacetic acid (EDTA). The plastic-adherent cells were treated with 40 μg/ml of mitomycin C at 37° C. for 60 minutes, washed three times, and suspended to the concentration of 4×10^6 cells/ml in the RPMI1640 culture medium supplemented with 10% FCS. The resultant suspension was used as the stimulator cell suspension. Fifty μl of the responder cell suspension from the donor A or C was mixed with 50 μl of the stimulator cell suspension from the donor B or D, to which 100 μl of the test substance was added, and cultured at 37° C. in the an atmosphere 5% carbon dioxide for 5 days.
After termination of the culture, 1.0 μCi/well of ^3 H-thymidine was added, and after 18 hours of culture, the cells were harvested by a cell-harvester. The radioactivity incorporated into the cells was measured by a liquid scintillation counter as the index of blastogenic response of lymphocytes in human allogenic MLR. The suppression of human allogenic MLR was evaluated by calculating the percent suppression by the following formula. [formula]

[3] = system: IL2-dependent mouse cell line CTLL-2; test: suppression of IL-2 induced 3H-thymidine incorporation of CTLL-2; format: cell-based; details: 72 hrs, second run (control 30168 cpm)
Description: IL2-dependent mouse cell line CTLL-2 cells were suspended in the RPMI1640 culture medium supplemented with 30% FCS to a concentration of 2×10^5 cells/ml. The suspension (50 μl) and 50 μl of concanavalin A-stimulated rat spleen cell culture supernatants containing IL2 were added to each well of 96-well microculture plates in which 100 μl of the test substance had been placed. After culturing at 37° C. in an atmosphere of 5% carbon dioxide for 20, 44, or 68 hours, 0.5 μCi/well of ^3 H-thymidine was added, and cultured for 4 hours under the same conditions. After termination of the culture, the cells were harvested by a cell harvester, and the radioactivity incorporated into the cells was measured by a liquid scintillation counter.

[4] = body weight, wet weight of thymus and spleen, number of spleen cells in SRBC-immunized mice; format: in vivo, mouse; details: Experiment 2; 10 mg/kg/day
Description: as §1, §2
as §2, with “(5×10^7” for “(1×10^7”, “the compound” for “ISP-I”, “5” for “1”, “resected,” for “resected”, “time,” for “time”

## CCCCCCC(=O)CCCCCCCCCC(O)C(O)C(N)(CO)C(=O)O (centres unmarked) [Example 5]
[1]
  Number of PFC per 1 × 10^7 cell: 5.6 ± 1.7 × 10^3 /1 × 10^7 cell
  Number of PFC per spleen: 12.9 ± 3.9 × 10^4 /spleen
[2]; Homo sapiens, Lymphocyte, donor A/donor B, 0.0001 μg/ml, read-out: Suppression
  inhibition at 0.0001 µg/mL: 14.4%
[2]; Homo sapiens, Lymphocyte, donor A/donor B, 0.001 μg/ml, read-out: Suppression
  inhibition at 0.001 µg/mL: 42.8%
[2]; Homo sapiens, Lymphocyte, donor A/donor B, 0.01 μg/ml, read-out: Suppression
  inhibition at 0.01 µg/mL: 59.4%
[2]; Homo sapiens, Lymphocyte, donor A/donor B, 0.1 μg/ml, read-out: Suppression
  inhibition at 0.1 µg/mL: 87.1%
[2]; Homo sapiens, Lymphocyte, donor A/donor B, 1 μg/ml, read-out: Suppression
  inhibition at 1 µg/mL: 85.4%
[2]; Homo sapiens, Lymphocyte, donor A/donor B, 10 μg/ml, read-out: Suppression
  inhibition at 10 µg/mL: 99.8%
[2]; Homo sapiens, Lymphocyte, donor C/donor D, 0.00001 μg/ml, read-out: Suppression
  inhibition at 10 pg/mL: 32.3%
[2]; Homo sapiens, Lymphocyte, donor C/donor D, 0.0001 μg/ml, read-out: Suppression
  inhibition at 0.0001 µg/mL: 54.7%
[2]; Homo sapiens, Lymphocyte, donor C/donor D, 0.001 μg/ml, read-out: Suppression
  inhibition at 0.001 µg/mL: 48.3%
[2]; Homo sapiens, Lymphocyte, donor C/donor D, 0.01 μg/ml, read-out: Suppression
  inhibition at 0.01 µg/mL: 58.1%
[2]; Homo sapiens, Lymphocyte, donor C/donor D, 0.1 μg/ml, read-out: Suppression
  inhibition at 0.1 µg/mL: 84.7%
[2]; Homo sapiens, Lymphocyte, donor C/donor D, 1 μg/ml, read-out: Suppression
  inhibition at 1 µg/mL: 80.5%
[2]; Lymphocyte, human allogenic MLR, read-out: 50%-inhibition concentration (IC50)
  IC50: 0.35 ng/mL (≈ 0.867 nM)
[2]; donor A/donor B, 0.0001 μg/ml
  3H-thymidine uptake: 20789 cpm
[2]; donor A/donor B, 0.001 μg/ml
  3H-thymidine uptake: 14690 cpm
[2]; donor A/donor B, 0.01 μg/ml
  3H-thymidine uptake: 11130 cpm
[2]; donor A/donor B, 0.1 μg/ml
  3H-thymidine uptake: 5181 cpm
[2]; donor A/donor B, 1 μg/ml
  3H-thymidine uptake: 5548 cpm
[2]; donor A/donor B, 10 μg/ml
  3H-thymidine uptake: 2439 cpm
[2]; donor C/donor D, 0.00001 μg/ml
  3H-thymidine uptake: 11827 cpm
[2]; donor C/donor D, 0.0001 μg/ml
  3H-thymidine uptake: 7941 cpm
[2]; donor C/donor D, 0.001 μg/ml
  3H-thymidine uptake: 9057 cpm
[2]; donor C/donor D, 0.01 μg/ml
  3H-thymidine uptake: 7346 cpm
[2]; donor C/donor D, 0.1 μg/ml
  3H-thymidine uptake: 2746 cpm
[2]; donor C/donor D, 1 μg/ml
  3H-thymidine uptake: 3466 cpm
[3]; 0.1 μg/ml
  3H-thymidine uptake: 26108 cpm
[3]; 1 μg/ml
  3H-thymidine uptake: 1532 cpm
[3]; Mus musculus, CTLL-2, 0.1 μg/ml, read-out: Suppression
  inhibition at 0.1 µg/mL: 13.5%
[3]; Mus musculus, CTLL-2, 1 μg/ml
  inhibition at 1 µg/mL: 95.1%
[4]
  Body weight: 24 ± 1 g
  Number of spleen cells: 2.3 ± 0.3 × 10^8 cell
  Wet weight spleen: 239 ± 40 mg
  Wet weight thymus: 52 ± 5 mg

From patent US5219884A, “Immunosuppressant” (Taito Co., Ltd., priority 1990, dated 1993)
